Measurements from patent publication US9714247B2, “Multiple kinase pathway inhibitors” (Mannkind Corporation, priority 2012, dated 2017).
pIC50: −log10 of the molar value.

Key:
Aurora-A(h) = Aurora-A(h) (Homo sapiens (Human), UniProt O14965); experiment: IC50 profiler radiometric kinase assay (Millipore); assay type: biochemical; conditions: MISC
Description: (§1) In order to determine the relative enzyme selectivity of these amino naphthyridinones, representative amino naphthyridinones were evaluated for their ability to inhibit various kinases. Kinases were selected for a broad representation of the kinome (see FIG. 2: Kinases Evaluated). Compounds were evaluated using the IC50 profiler assay (Millipore), which measures substrate phosphorylation via γ-^33P-ATP transfer by the kinase of interest.
(§2) The assay directly measures the catalytic incorporation of phosphate onto kinase substrates. The kinase protein is incubated in buffer with substrate and γ-^33P-ATP. The reaction is initiated by the addition of the Mg-ATP mix. At the end of the reaction incubation time, the reaction is stopped by the addition of phosphoric acid solution and 10 μL of the reaction is spotted onto a filtermat, washed, dried and counted in scintillation fluid. […] In particular the amino naphthyridinones inhibited Abl and some but not all tested members of the Tec and Src families of tyrosine kinases, but not tyrosine-like kinases or the non-tyrosine kinases tested (See FIG. 2: Compound 1). […] Other known drugs with activity against BTK and SFKs, such as dasatinib and bosutinib, have activity against a broader array of tyrosine kinases as well as inhibiting non-tyrosine kinases (See FIG. 2: Dasatinib).

BTK(h) = BTK(h) (Homo sapiens (Human), UniProt Q06187); experiment: IC50 profiler radiometric kinase assay (Millipore); assay type: biochemical; conditions: TK
Description: as §1, §2

CDK7/cyclinH/MAT1(h) = CDK7/cyclinH/MAT1(h) (Homo sapiens (Human), UniProt P50613); experiment: IC50 profiler radiometric kinase assay (Millipore); assay type: biochemical; conditions: CMGC
Description: as §1, §2

CHK1(h) = CHK1(h) (Homo sapiens (Human), UniProt O14757); experiment: IC50 profiler radiometric kinase assay (Millipore); assay type: biochemical; conditions: CAMK
Description: as §1, §2

EGFR(h) = EGFR(h) (Homo sapiens (Human), UniProt P00533); experiment: IC50 profiler radiometric kinase assay (Millipore); assay type: biochemical; conditions: TK
Description: as §1, §2

FGFR1(h) = FGFR1(h) (Homo sapiens (Human), UniProt P11362); experiment: IC50 profiler radiometric kinase assay (Millipore); assay type: biochemical; conditions: TK
Description: as §1, §2

GSK3α(h) = GSK3α(h) (Homo sapiens (Human), UniProt P49840); experiment: IC50 profiler radiometric kinase assay (Millipore); assay type: biochemical; conditions: CMGC
Description: as §1, §2

GSK3β(h) = GSK3β(h) (Homo sapiens (Human), UniProt P49841); experiment: IC50 profiler radiometric kinase assay (Millipore); assay type: biochemical; conditions: CMGC
Description: as §1, §2

Hck(h) = Hck(h) (Homo sapiens (Human), UniProt P08631); experiment: IC50 profiler radiometric kinase assay (Millipore); assay type: biochemical; conditions: TK
Description: as §1, §2

Hck(h) activated = Hck(h) activated (Homo sapiens (Human), UniProt P08631); experiment: IC50 profiler radiometric kinase assay (Millipore); assay type: biochemical; conditions: TK; activated = phosphorylated
Description: as §1, §2

IGF-1R(h) = IGF-1R(h) (Homo sapiens (Human), UniProt P08069); experiment: IC50 profiler radiometric kinase assay (Millipore); assay type: biochemical; conditions: TK
Description: as §1, §2

IKKβ(h) = IKKβ(h) (Homo sapiens (Human), UniProt O14920); experiment: IC50 profiler radiometric kinase assay (Millipore); assay type: biochemical; conditions: MISC
Description: as §1, §2

Itk(h) = Itk(h) (Homo sapiens (Human), UniProt Q08881); experiment: IC50 profiler radiometric kinase assay (Millipore); assay type: biochemical; conditions: TK
Description: as §1, §2

JAK2(h) = JAK2(h) (Homo sapiens (Human), UniProt O60674); experiment: IC50 profiler radiometric kinase assay (Millipore); assay type: biochemical; conditions: TK
Description: as §1, §2

JAK3(h) = JAK3(h) (Homo sapiens (Human), UniProt P52333); experiment: IC50 profiler radiometric kinase assay (Millipore); assay type: biochemical; conditions: TK
Description: as §1, §2

JNK1α1(h) = JNK1α1(h) (Homo sapiens (Human), UniProt P45983); experiment: IC50 profiler radiometric kinase assay (Millipore); assay type: biochemical; conditions: CMGC
Description: as §1, §2

JNK2α2(h) = JNK2α2(h) (Homo sapiens (Human), UniProt P45984); experiment: IC50 profiler radiometric kinase assay (Millipore); assay type: biochemical; conditions: CMGC
Description: as §1, §2

Lck(h) = Lck(h) (Homo sapiens (Human), UniProt P06239); experiment: IC50 profiler radiometric kinase assay (Millipore); assay type: biochemical; conditions: TK
Description: as §1, §2

MAPK1(h) = MAPK1(h) (Homo sapiens (Human), UniProt P27361); experiment: IC50 profiler radiometric kinase assay (Millipore); assay type: biochemical; conditions: CMGC
Description: as §1, §2

MAPKAP-K2(h) = MAPKAP-K2(h) (Homo sapiens (Human), UniProt P49137); experiment: IC50 profiler radiometric kinase assay (Millipore); assay type: biochemical; conditions: CAMK
Description: as §1, §2

PDGFRα(h) = PDGFRα(h) (Homo sapiens (Human), UniProt P16234); experiment: IC50 profiler radiometric kinase assay (Millipore); assay type: biochemical; conditions: TK
Description: as §1, §2

PDGFRβ(h) = PDGFRβ(h) (Homo sapiens (Human), UniProt P09619); experiment: IC50 profiler radiometric kinase assay (Millipore); assay type: biochemical; conditions: TK
Description: as §1, §2

PDK1(h) = PDK1(h) (Homo sapiens (Human), UniProt O15530); experiment: IC50 profiler radiometric kinase assay (Millipore); assay type: biochemical; conditions: AGC
Description: as §1, §2

Pim-1(h) = Pim-1(h) (Homo sapiens (Human), UniProt P11309); experiment: IC50 profiler radiometric kinase assay (Millipore); assay type: biochemical; conditions: CAMK
Description: as §1, §2

Tie2(h) = Tie2(h) (Homo sapiens (Human), UniProt Q02763); experiment: IC50 profiler radiometric kinase assay (Millipore); assay type: biochemical; conditions: TK
Description: as §1, §2

c-Kit(D816V)(h) = c-Kit(D816V)(h) (Homo sapiens (Human), UniProt P10721, D816V); experiment: IC50 profiler radiometric kinase assay (Millipore); assay type: biochemical; conditions: TK
Description: as §1, §2

c-RAF(h) = c-RAF(h) (Homo sapiens (Human), UniProt P04049, Y340D/Y341D); experiment: IC50 profiler radiometric kinase assay (Millipore); assay type: biochemical; conditions: TKL
Description: as §1, §2

CDK9/cyclinT1(h) = CDK9/cyclinT1(h) (Homo sapiens (Human), UniProt P50750); experiment: IC50 profiler radiometric kinase assay (Millipore); assay type: biochemical; conditions: CMGC
DoHH2 = experiment: Apoptosis by flow cytometry (Annexin V / 7AAD); assay type: cell-based, human; conditions: for Percent Apoptosis DOHH2: Table 5, 6 hours
Text: Activation of Tec family kinases including BTK, and/or Src kinase family members, regulates cell survival and cell death in normal B cells, lymphomas, and solid tumors. Apoptosis is a programmed cell death characterized by specific changes in cell morphology. […] Staurosporine was used as a positive control for apoptosis. […] Table 6 illustrates that several amino naphthyridinones induce significant apoptosis in DoHH2 cells.

Ramos = experiment: Apoptosis by flow cytometry (Annexin V / 7AAD); assay type: cell-based, human; conditions: Table 5, 6 hours

Sequence of CDK9/cyclinT1(h) (P50750 whole entry): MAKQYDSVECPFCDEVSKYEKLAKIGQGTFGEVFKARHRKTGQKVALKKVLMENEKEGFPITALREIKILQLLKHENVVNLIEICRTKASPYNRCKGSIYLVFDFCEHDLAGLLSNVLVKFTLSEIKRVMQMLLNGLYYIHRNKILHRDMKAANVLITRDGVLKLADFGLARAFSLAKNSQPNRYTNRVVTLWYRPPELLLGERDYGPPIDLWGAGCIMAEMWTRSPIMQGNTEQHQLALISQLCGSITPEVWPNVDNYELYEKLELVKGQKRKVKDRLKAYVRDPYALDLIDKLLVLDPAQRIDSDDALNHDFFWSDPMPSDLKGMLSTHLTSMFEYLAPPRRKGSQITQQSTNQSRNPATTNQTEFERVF
Sequence of CDK9/cyclinT1(h) (O60563 whole entry partner): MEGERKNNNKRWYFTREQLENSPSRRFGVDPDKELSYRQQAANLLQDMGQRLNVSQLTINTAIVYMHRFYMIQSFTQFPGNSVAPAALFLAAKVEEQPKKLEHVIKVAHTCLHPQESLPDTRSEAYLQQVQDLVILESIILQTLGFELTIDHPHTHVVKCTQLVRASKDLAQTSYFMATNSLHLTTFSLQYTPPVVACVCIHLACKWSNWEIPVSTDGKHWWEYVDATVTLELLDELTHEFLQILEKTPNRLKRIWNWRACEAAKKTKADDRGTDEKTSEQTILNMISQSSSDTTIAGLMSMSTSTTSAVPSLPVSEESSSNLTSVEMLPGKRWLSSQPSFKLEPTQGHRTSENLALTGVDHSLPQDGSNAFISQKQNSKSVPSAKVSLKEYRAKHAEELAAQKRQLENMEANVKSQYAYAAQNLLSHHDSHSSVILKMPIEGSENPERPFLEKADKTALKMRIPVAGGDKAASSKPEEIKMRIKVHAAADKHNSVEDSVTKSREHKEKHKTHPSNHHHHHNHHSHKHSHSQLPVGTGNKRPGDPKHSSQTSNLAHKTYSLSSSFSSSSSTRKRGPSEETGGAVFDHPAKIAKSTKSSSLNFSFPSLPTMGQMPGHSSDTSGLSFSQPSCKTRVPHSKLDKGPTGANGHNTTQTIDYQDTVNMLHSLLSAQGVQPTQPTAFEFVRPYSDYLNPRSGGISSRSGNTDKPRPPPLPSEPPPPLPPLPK
Sequence of EGFR(h) (P00533 25-1210): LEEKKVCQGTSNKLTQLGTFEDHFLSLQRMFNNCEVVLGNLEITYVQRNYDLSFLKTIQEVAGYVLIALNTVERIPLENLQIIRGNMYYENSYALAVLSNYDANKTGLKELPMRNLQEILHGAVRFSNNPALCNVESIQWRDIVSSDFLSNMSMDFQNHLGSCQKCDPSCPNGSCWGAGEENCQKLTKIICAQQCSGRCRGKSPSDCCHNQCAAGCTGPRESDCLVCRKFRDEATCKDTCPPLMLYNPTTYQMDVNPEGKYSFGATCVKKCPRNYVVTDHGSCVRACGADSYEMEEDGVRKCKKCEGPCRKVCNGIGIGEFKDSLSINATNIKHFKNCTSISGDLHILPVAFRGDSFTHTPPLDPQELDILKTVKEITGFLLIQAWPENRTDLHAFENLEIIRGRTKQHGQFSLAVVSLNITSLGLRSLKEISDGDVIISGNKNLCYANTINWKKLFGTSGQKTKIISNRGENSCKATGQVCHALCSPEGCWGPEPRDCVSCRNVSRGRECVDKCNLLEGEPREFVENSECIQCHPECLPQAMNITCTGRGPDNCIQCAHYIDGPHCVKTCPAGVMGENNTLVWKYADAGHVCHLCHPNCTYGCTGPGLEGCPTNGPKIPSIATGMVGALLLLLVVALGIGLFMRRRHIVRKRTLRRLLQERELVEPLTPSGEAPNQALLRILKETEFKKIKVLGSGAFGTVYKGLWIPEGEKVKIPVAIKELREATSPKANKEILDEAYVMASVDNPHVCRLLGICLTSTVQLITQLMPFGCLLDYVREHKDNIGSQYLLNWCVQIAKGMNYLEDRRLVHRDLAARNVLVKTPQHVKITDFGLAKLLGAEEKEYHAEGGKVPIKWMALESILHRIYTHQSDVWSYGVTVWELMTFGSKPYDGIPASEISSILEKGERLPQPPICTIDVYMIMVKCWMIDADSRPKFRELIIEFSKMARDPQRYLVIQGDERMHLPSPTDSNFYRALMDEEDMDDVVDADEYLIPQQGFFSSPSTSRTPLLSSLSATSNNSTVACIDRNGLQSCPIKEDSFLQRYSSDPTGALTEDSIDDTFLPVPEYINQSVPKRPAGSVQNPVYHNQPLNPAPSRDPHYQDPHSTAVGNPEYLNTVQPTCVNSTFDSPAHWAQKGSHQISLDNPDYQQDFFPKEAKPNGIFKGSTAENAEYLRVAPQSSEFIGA
Sequence of GSK3α(h) (P49840 whole entry): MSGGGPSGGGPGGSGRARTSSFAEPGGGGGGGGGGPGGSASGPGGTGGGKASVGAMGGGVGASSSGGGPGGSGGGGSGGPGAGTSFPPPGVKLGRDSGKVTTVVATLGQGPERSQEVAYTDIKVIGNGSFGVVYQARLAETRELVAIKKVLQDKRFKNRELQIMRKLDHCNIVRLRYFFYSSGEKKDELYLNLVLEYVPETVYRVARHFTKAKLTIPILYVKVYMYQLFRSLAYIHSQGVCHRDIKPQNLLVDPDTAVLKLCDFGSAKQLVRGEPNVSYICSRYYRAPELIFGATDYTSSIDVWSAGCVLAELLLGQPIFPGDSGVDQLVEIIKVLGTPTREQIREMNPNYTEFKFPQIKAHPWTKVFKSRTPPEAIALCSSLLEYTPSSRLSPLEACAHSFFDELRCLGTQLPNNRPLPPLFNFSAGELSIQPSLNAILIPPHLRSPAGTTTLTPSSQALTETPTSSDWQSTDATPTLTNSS
Sequence of JAK2(h) (O60674 whole entry): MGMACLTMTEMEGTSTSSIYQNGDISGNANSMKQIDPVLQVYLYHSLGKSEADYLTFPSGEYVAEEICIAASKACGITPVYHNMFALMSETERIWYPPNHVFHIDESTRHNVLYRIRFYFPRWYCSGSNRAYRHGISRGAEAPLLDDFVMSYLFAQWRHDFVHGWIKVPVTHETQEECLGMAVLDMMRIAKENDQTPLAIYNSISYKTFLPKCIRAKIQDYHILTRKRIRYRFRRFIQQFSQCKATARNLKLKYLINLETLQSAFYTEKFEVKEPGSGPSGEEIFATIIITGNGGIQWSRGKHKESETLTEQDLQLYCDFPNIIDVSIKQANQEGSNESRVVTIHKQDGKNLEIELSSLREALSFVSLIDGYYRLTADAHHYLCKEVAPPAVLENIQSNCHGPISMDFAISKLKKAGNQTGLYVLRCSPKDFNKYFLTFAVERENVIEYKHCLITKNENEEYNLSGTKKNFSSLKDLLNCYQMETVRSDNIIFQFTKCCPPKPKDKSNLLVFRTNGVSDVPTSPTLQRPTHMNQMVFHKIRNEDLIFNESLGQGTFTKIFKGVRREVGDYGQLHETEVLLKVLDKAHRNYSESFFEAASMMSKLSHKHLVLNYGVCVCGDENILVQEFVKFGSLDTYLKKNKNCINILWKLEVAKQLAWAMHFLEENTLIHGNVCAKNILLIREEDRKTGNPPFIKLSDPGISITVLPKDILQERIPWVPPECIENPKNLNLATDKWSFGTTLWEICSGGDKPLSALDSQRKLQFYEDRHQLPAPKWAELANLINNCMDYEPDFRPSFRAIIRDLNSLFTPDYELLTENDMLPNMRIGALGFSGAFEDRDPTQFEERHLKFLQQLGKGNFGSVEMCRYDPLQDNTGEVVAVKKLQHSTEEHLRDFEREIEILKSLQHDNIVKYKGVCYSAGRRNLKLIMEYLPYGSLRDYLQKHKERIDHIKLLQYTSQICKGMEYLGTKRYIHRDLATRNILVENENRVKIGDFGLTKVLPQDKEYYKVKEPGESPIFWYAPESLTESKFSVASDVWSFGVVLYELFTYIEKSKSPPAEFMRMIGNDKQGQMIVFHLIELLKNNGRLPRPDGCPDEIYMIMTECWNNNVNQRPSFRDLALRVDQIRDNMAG
Sequence of Tie2(h) (Q02763 23-1124): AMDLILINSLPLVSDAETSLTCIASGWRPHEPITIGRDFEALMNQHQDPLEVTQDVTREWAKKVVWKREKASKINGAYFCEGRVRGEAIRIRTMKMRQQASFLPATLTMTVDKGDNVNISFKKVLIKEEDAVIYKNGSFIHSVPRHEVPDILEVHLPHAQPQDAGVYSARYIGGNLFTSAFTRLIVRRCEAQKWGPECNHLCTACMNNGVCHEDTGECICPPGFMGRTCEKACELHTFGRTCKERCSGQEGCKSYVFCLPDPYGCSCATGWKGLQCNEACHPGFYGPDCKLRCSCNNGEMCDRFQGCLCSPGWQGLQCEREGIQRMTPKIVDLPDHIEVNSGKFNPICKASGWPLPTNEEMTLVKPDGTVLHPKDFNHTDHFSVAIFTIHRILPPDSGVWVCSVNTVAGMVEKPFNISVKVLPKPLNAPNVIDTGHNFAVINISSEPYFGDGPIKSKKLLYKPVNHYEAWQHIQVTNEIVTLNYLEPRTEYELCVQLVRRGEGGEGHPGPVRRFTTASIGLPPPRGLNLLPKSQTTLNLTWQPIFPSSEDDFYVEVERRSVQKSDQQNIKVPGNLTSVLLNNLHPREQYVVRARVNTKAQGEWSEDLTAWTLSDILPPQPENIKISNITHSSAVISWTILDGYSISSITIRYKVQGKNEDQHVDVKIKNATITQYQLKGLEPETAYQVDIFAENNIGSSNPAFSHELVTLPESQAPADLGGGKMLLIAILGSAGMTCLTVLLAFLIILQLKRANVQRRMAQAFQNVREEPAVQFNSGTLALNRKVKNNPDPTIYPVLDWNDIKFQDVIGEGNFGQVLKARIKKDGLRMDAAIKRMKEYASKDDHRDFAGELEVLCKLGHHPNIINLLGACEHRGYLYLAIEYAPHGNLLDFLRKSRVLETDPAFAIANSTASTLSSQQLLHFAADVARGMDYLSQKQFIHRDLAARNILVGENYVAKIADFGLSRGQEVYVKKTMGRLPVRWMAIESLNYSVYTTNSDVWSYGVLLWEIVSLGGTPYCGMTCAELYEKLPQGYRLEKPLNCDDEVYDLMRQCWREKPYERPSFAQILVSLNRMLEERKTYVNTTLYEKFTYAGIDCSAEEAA

SMILES | pIC50 (Aurora-A(h)) | pIC50 (BTK(h)) | pIC50 (CDK7/cyclinH/MAT1(h)) | pIC50 (CHK1(h)) | pIC50 (EGFR(h)) | pIC50 (FGFR1(h)) | pIC50 (GSK3α(h)) | pIC50 (GSK3β(h)) | pIC50 (Hck(h)) | pIC50 (Hck(h) activated) | pIC50 (IGF-1R(h)) | pIC50 (IKKβ(h)) | pIC50 (Itk(h)) | pIC50 (JAK2(h)) | pIC50 (JAK3(h)) | pIC50 (JNK1α1(h)) | pIC50 (JNK2α2(h)) | pIC50 (Lck(h)) | pIC50 (MAPK1(h)) | pIC50 (MAPKAP-K2(h)) | also measured
CCN(CC)CCOc1ccc(Nc2cc3c(cn2)cc(-c2ccccc2)c(=O)n3CC)nc1 [Compound 1, 7-[5-(2-Diethylamino-ethoxy)-pyridin-2-ylamino]-1-ethyl-3-phenyl-1H-[1, 6]naphthyridin-2-one] | < 6.00 | 7.00 to 8.00 | < 6.00 | < 6.00 | 6.00 to 6.30 | > 8.00 | < 6.00 | < 6.00 | 7.00 to 8.00 | > 8.00 | < 6.00 | < 6.00 | < 6.00 | < 6.00 | < 6.00 | < 6.00 | < 6.00 | > 8.00 | < 6.00 | < 6.00 | pIC50 (PDGFRα(h)): 6.30 to 7.00; pIC50 (PDGFRβ(h)): 6.30 to 7.00; pIC50 (PDK1(h)): < 6.00; pIC50 (Pim-1(h)): < 6.00; pIC50 (Tie2(h)): 6.00 to 6.30; pIC50 (c-Kit(D816V)(h)): 6.30 to 7.00; pIC50 (c-RAF(h)): 6.30 to 7.00; pIC50 (CDK9/cyclinT1(h)): < 6.00; Percent Apoptosis DOHH2 (DoHH2; 1 uM): 4.43%; Percent Apoptosis DOHH2 (DoHH2; 2 uM): 29.84%; Percent Apoptosis DOHH2 (DoHH2; 5 uM): 21.76%; Percent Apoptosis DOHH2 (DoHH2; 10 uM): 37.52%; Percent Apoptosis at 2 uM (DoHH2; Table 6, DOHH2, 2 uM): 26.2%; Percent Apoptosis at 5 uM (DoHH2; Table 6, DOHH2, 5 uM): 32.58%; Percent Apoptosis Ramos (Ramos; 1 uM): 35.71%; Percent Apoptosis Ramos (Ramos; 2 uM): 38.94%; Percent Apoptosis Ramos (Ramos; 5 uM): 39.09%; Percent Apoptosis Ramos (Ramos; 10 uM): 51.63%
CCn1c(=O)c(-c2ccccc2)cc2cnc(Nc3ncc(CCN(C)C)s3)cc21 [Compound 2, 7-[5-(2-Dimethylamino-ethyl)-thiazol-2-ylamino]-1-ethyl-3-phenyl-1H-[1,6]naphthyridin-2-one] | < 6.00 | 6.30 to 7.00 | < 6.00 | < 6.00 | < 6.00 | 7.00 to 8.00 | < 6.00 | < 6.00 | 6.00 to 6.30 | 6.30 to 7.00 | < 6.00 | < 6.00 | < 6.00 | < 6.00 | < 6.00 | < 6.00 | < 6.00 | > 8.00 | < 6.00 | < 6.00 | pIC50 (PDGFRα(h)): 6.00 to 6.30; pIC50 (PDGFRβ(h)): 6.00 to 6.30; pIC50 (PDK1(h)): < 6.00; pIC50 (Pim-1(h)): < 6.00; pIC50 (Tie2(h)): < 6.00; pIC50 (c-Kit(D816V)(h)): < 6.00; pIC50 (c-RAF(h)): 6.30 to 7.00; pIC50 (CDK9/cyclinT1(h)): < 6.00
